Experimental data reported in patent US12403137B2, “Compounds and methods of use” (Tango Therapeutics, Inc., priority 2019, dated 2025).

Experiments:
PRMT5 [1] = target: T1, PRMT5 (Homo sapiens, UniProt O14744); assay: PRMT5 inhibition assay with SAM as cofactor; assay type: biochemical; conditions: against PRMT5 in the presence of SAM as cofactor
T1 construct: purchased Viva (custom protein)
Text: (§1) The Ki values can be calculated from the IC50 values as described in the Examples section. As detailed in the Examples section, for the assay performed in the presence of SAM, IC50=Ki×1.5 (Ki=IC50/1.5). For the assay performed in the presence of MTA, IC50=Ki×13.5 (Ki=IC50/13.5). Column 6 indicates the ratio between the Ki of compounds in the presence of SAM and the Ki of compounds in the presence of MTA

PRMT5 [2] = target: T1, PRMT5; assay: PRMT5 inhibition assay with MTA as cofactor; assay type: biochemical; conditions: for IC50: against PRMT5 with MTA as cofactor; for SAM/MTA Ratio: ratio of Ki in the presence of SAM to Ki in the presence of MTA, Ki=IC50/1.5 (SAM), Ki=IC50/13.5 (MTA)
Text: as §1

[3] = tested on: HAP1 MTAP-deleted cell line; assay: SDMA in-cell western assay, HAP1 MTAP-deleted; assay type: cell-based; conditions: for IC50: Homo sapiens, HAP1 MTAP-deleted (MTAP-null) cell line; for MTAP Intact/Deleted Ratio: IC50 ratio HAP1 MTAP-intact / HAP1 MTAP-deleted, >=3 fold considered MTAP-selective
Outline: (§2)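 IC50 values come from an SDMA in-cell western run in isogenic HAP1 cells, either MTAP-null or expressing endogenous MTAP. The intact-to-deleted IC50 ratio is used to score MTAP selectivity.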

[4] = tested on: HAP1 MTAP-intact cell line; assay: SDMA in-cell western assay, HAP1 MTAP-intact; assay type: cell-based; conditions: Homo sapiens
Outline: as §2

PRMT5 [5] = target: T1, PRMT5; assay: PRMT5 inhibition assay with no cofactor; assay type: biochemical; conditions: against PRMT5 with no cofactor; read-out: No Co-factor IC50

T1 sequence (O14744 whole entry): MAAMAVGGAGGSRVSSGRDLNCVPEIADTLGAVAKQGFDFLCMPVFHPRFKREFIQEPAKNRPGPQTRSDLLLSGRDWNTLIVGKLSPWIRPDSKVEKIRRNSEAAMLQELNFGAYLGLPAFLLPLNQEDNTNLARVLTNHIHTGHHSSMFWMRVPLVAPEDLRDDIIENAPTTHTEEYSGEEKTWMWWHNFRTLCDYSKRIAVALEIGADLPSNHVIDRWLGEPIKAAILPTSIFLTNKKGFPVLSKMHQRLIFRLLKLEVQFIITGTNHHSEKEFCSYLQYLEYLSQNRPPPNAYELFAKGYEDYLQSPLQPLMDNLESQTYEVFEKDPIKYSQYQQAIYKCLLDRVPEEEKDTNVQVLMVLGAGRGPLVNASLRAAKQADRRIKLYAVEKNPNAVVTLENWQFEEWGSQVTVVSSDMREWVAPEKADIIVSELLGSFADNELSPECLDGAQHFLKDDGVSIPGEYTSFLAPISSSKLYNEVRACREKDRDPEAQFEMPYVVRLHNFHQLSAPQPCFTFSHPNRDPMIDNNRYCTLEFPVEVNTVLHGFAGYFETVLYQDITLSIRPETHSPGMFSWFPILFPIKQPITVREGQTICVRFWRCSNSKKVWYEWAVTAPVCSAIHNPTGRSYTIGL
T1 sequence (Q9BQA1 whole entry partner): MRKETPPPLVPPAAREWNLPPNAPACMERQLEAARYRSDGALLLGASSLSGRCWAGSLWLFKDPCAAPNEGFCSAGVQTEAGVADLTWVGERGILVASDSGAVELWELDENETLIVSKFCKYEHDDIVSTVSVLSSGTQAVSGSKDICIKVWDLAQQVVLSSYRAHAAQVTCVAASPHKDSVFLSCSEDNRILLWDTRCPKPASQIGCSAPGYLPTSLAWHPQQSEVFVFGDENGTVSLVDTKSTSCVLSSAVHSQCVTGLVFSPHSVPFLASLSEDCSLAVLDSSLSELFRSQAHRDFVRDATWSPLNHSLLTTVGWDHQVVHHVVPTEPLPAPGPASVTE

IC50 (PRMT5 [1]) | IC50 (PRMT5 [2]) | IC50 [3] | IC50 [4] | IC50 (PRMT5 [5]) | Compound | SAM/MTA Ratio (PRMT5 [2]) | MTAP Intact/Deleted Ratio [3]
50 to 500 nM | < 50 nM | 1000 to 10000 nM | ≥ 10000 nM | 50 to 500 nM | CC(=O)N1CC(Nc2cc(C(=O)NC[C@@H](O)[C@@H]3Cc4ccc(OCc5ocnc5C)cc4CN3)nc(N3CCN(C(C)C)CC3)n2)C1 [Compound 47, 6-[(1-acetylazetidin-3-yl)amino]-N-[(2R)-2-hydroxy-2-[(3S)-7-[(4-methyloxazol-5-yl)methoxy]-1,2,3,4-tetrahydroisoquinolin-3-yl]ethyl]-2-(4-isopropylpiperazin-1-yl)pyrimidine-4-carboxamide] | A (a Ki ratio greater than or equal to 10 fold between the Ki in the presence of SAM and the Ki in the presence of MTA) | C* (an IC50 ratio of less than 3 fold between the IC50 in the HAP1 MTAP-intact cell line and the HAP1 MTAP-deleted cell line)
50 to 500 nM | < 50 nM | < 1000 nM | < 1000 nM | 50 to 500 nM | CCN1CCN(c2cc(C(=O)NC[C@@H](O)[C@@H]3Cc4ccc(OCc5ocnc5C)cc4CN3)cc(NC3CCC3)n2)CC1 [Compound 55, 2-(cyclobutylamino)-6-(4-ethylpiperazin-1-yl)-N-[(2R)-2-hydroxy-2-[(3S)-7-[(4-methyloxazol-5-yl)methoxy]-1,2,3,4-tetrahydroisoquinolin-3-yl]ethyl]pyridine-4-carboxamide] | A (a Ki ratio greater than or equal to 10 fold between the Ki in the presence of SAM and the Ki in the presence of MTA) | B* (an IC50 ratio greater than or equal to 3 fold but lower than 10 fold between the IC50 in the HAP1 MTAP-intact cell line and the HAP1 MTAP-deleted cell line)
50 to 500 nM | < 50 nM | < 1000 nM | 1000 to 10000 nM | 500 to 5000 nM | Cc1ncoc1COc1ccc2c(c1)CN[C@H]([C@H](O)CNC(=O)c1cc(NC3CCC3)ccn1)C2 [Compound 35, 4-(cyclobutylamino)-N—((R)-2-hydroxy-2-((S)-7-((4-methyloxazol-5-yl)methoxy)-1,2,3,4-tetrahydroisoquinolin-3-yl)ethyl)picolinamide] | A (a Ki ratio greater than or equal to 10 fold between the Ki in the presence of SAM and the Ki in the presence of MTA) | A* (an IC50 ratio greater than or equal to 10 fold between the IC50 in the HAP1 MTAP-intact cell line and the HAP1 MTAP-deleted cell line)
50 to 500 nM | < 50 nM | < 1000 nM | 1000 to 10000 nM | 50 to 500 nM | Cc1ncoc1COc1ccc2c(c1)CN[C@H]([C@H](O)CNC(=O)c1cc(NC3CC4(CCC4)C3)ncn1)C2 [Compound 43, N-[(2R)-2-hydroxy-2-[(3S)-7-[(4-methyloxazol-5-yl)methoxy]-1,2,3,4-tetrahydroisoquinolin-3-yl]ethyl]-6-(spiro[3.3]heptan-2-ylamino)pyrimidine-4-carboxamide] | A (a Ki ratio greater than or equal to 10 fold between the Ki in the presence of SAM and the Ki in the presence of MTA) | A* (an IC50 ratio greater than or equal to 10 fold between the IC50 in the HAP1 MTAP-intact cell line and the HAP1 MTAP-deleted cell line)
50 to 500 nM | < 50 nM | < 1000 nM | < 1000 nM | 50 to 500 nM | Cc1ncoc1COc1ccc2c(c1)CN[C@H]([C@H](O)CNC(=O)c1ccnc(NC3CC4(CCC4)C3)c1)C2 [Compound 46, N-[(2R)-2-hydroxy-2-[(3S)-7-[(4-methyloxazol-5-yl)methoxy]-1,2,3,4-tetrahydroisoquinolin-3-yl]ethyl]-2-(spiro[3.3]heptan-2-ylamino)pyridine-4-carboxamide] | A (a Ki ratio greater than or equal to 10 fold between the Ki in the presence of SAM and the Ki in the presence of MTA) | B* (an IC50 ratio greater than or equal to 3 fold but lower than 10 fold between the IC50 in the HAP1 MTAP-intact cell line and the HAP1 MTAP-deleted cell line)
50 to 500 nM | 50 to 500 nM | 1000 to 10000 nM | ≥ 10000 nM | 500 to 5000 nM | Cc1ncoc1COc1ccc2c(c1)CN[C@H]([C@H](O)CNC(=O)c1ccc(C(=O)N3CCOCC3)cc1)C2 [Compound 3, N—((R)-2-hydroxy-2-((S)-7-((4-methyloxazol-5-yl)methoxy)-1,2,3,4-tetrahydroisoquinolin-3-yl)ethyl)-4-(morpholine-4-carbonyl)benzamide] | A (a Ki ratio greater than or equal to 10 fold between the Ki in the presence of SAM and the Ki in the presence of MTA) | C* (an IC50 ratio of less than 3 fold between the IC50 in the HAP1 MTAP-intact cell line and the HAP1 MTAP-deleted cell line)
50 to 500 nM | < 50 nM | < 1000 nM | 1000 to 10000 nM | 50 to 500 nM | CC(=O)N1CC(Nc2cc(C(=O)NC[C@@H](O)[C@@H]3Cc4ccc(OCc5ocnc5C)cc4CN3)nc(N3CC4CCC(C4)C3)n2)C1 [Compound 56, 6-[(1-acetylazetidin-3-yl)amino]-2-(3-azabicyclo[3.2.1]octan-3-yl)-N-[(2R)-2-hydroxy-2-[(3S)-7-[(4-methyloxazol-5-yl)methoxy]-1,2,3,4-tetrahydroisoquinolin-3-yl]ethyl]pyrimidine-4-carboxamide] | A (a Ki ratio greater than or equal to 10 fold between the Ki in the presence of SAM and the Ki in the presence of MTA) | A* (an IC50 ratio greater than or equal to 10 fold between the IC50 in the HAP1 MTAP-intact cell line and the HAP1 MTAP-deleted cell line)
50 to 500 nM | 50 to 500 nM | ≥ 10000 nM | ≥ 10000 nM | 500 to 5000 nM | Cn1nccc1COc1ccc2c(c1)CN[C@H]([C@H](O)CNC(=O)c1ccc(C(=O)N3CCOCC3)cc1)C2 [Compound 2, N—((R)-2-hydroxy-2-((S)-7-((1-methyl-1H-pyrazol-5-yl)methoxy)-1,2,3,4-tetrahydroisoquinolin-3-yl)ethyl)-4-(morpholine-4-carbonyl)benzamide] | A (a Ki ratio greater than or equal to 10 fold between the Ki in the presence of SAM and the Ki in the presence of MTA) | C* (an IC50 ratio of less than 3 fold between the IC50 in the HAP1 MTAP-intact cell line and the HAP1 MTAP-deleted cell line)
50 to 500 nM | < 50 nM | < 1000 nM | 1000 to 10000 nM | 50 to 500 nM | Cc1ncoc1COc1ccc2c(c1)CN[C@H]([C@H](O)CNC(=O)c1ccc3c(c1)CCN(C(=O)c1ccc(Br)cc1)C3)C2 [Compound 20, 2-(4-bromobenzoyl)-N—((R)-2-hydroxy-2-((S)-7-((4-methyloxazol-5-yl)methoxy)-1,2,3,4-tetrahydroisoquinolin-3-yl)ethyl)-1,2,3,4-tetrahydroisoquinoline-6-carboxamide] | A (a Ki ratio greater than or equal to 10 fold between the Ki in the presence of SAM and the Ki in the presence of MTA) | A* (an IC50 ratio greater than or equal to 10 fold between the IC50 in the HAP1 MTAP-intact cell line and the HAP1 MTAP-deleted cell line)

Compound | IC50 (PRMT5 [1]) | IC50 (PRMT5 [2]) | IC50 [3] | IC50 [4] | IC50 (PRMT5 [5]) | SAM/MTA Ratio (PRMT5 [2]) | MTAP Intact/Deleted Ratio [3]
O=C(NC[C@@H](O)[C@@H]1Cc2ccc(OCc3cnco3)cc2CN1)c1ccc(C(=O)N2[C@@H]3CCC[C@H]2COC3)cc1 [Compound 7, 4-((1R,5S)-3-oxa-9-azabicyclo[3.3.1]nonane-9-carbonyl)-N—((R)-2-hydroxy-2-((S)-7-(oxazol-5-ylmethoxy)-1,2,3,4-tetrahydroisoquinolin-3-yl)ethyl)benzamide] | 50 to 500 nM | 50 to 500 nM | 1000 to 10000 nM | ≥ 10000 nM | 500 to 5000 nM | A (a Ki ratio greater than or equal to 10 fold between the Ki in the presence of SAM and the Ki in the presence of MTA) | B* (an IC50 ratio greater than or equal to 3 fold but lower than 10 fold between the IC50 in the HAP1 MTAP-intact cell line and the HAP1 MTAP-deleted cell line)
CC(=O)N1CC(Nc2cc(C(=O)NC[C@@H](O)[C@@H]3Cc4ccc(OCc5ocnc5C)cc4CN3)nc(N3CC4CC(C4)C3)n2)C1 [Compound 51, 6-[(1-acetylazetidin-3-yl)amino]-2-(3-azabicyclo[3.1.1]heptan-3-yl)-N-[(2R)-2-hydroxy-2-[(3S)-7-[(4-methyloxazol-5-yl)methoxy]-1,2,3,4-tetrahydroisoquinolin-3-yl]ethyl]pyrimidine-4-carboxamide] | 50 to 500 nM | < 50 nM | < 1000 nM | 1000 to 10000 nM | 50 to 500 nM | A (a Ki ratio greater than or equal to 10 fold between the Ki in the presence of SAM and the Ki in the presence of MTA) | A* (an IC50 ratio greater than or equal to 10 fold between the IC50 in the HAP1 MTAP-intact cell line and the HAP1 MTAP-deleted cell line)
